Data reported in US6458767B1, “Use of peptides inhibitory for thrombospondin dependent TGF-β activation in the treatment of kidney disease” (The UAB Research Foundation, priority 1994, dated 2002).

How the values were obtained:
TSP1 null mice = conditions: literature; cited from earlier work
TGF-β = assay: Glomerular secretion of active TGF-β (NRK-bioassay of supernatants of isolated glomeruli) in anti-Thy1 rats; type: in vivo, rat
Description: (§1) Experimental design. Experimental mesangial proliferative glomerulonephritis was induced using the monoclonal mouse anti-Thy1 antibody OX-7. Peptides were continuously infused intravenously (i.v.) via jugular vein using osmotic minipumps starting sixteen hours after disease induction. The effects of the hexapeptide AAWSHW (SEQ ID NO:22) (that interferes with the TSP1-mature TGF-β interaction) or the LSKL-peptide (SEQ ID NO:21) (that blocks the TSP1-LAP interaction) were compared to a control peptide (SLLK) in the anti-Thy1 model. Tissues from different time points (days three, five, eight) of this experiment were analyzed in regard to mesangiolysis, macrophage-influx, MC-proliferation, MC-activation, microaneurysm and matrix formation, GEN proliferation, TSP1, TGF-β1 and 2, as well as TGF-βRI and RII. Functional parameters such as blood pressure, proteinuria, and creatinine clearance were also determined. On day eight, glomerular secretion of active TGF-β was determined in individual animals by incubating isolated glomeruli for twenty-four hours in DMEM and measuring TGF-β activity in glomerular supernatants using the NRK-bioassay.
(§2) Animal model Experimental mesangial proliferative glomerulonephritis (anti-Thy1 model) was induced in Sprague Dawley rats (180-200 g; Charles River, Sulzfeld, Germany) by a single injection of 1 mg/kg of the mouse monoclonal anti-Thy1 antibody OX-7 (European Collection of Animal Cell Culture, Salisbury, England). In this animal model, complete anti-Thy1 antibody binding occurs within an hour (Johnson et al. (1991) Am. J. Pathol. 138 (2), 313-21). To avoid potential interference of the LAP-peptides with anti-Thy1 antibody binding and subsequent mesangiolysis, the peptide treatment was started sixteen hours after disease induction, when binding of the anti-Thy1 antibody to the mesangium and subsequent mesangiolysis had already occurred. The peptides used in this study were synthesized, purified, and analyzed as described elsewhere (Crawford et al. (1998) Cell 93, 1159-1170).
Renal biopsies as described previously (Hugo et al. (1997) J. Clin. Invest. 100, 786-794) were performed on days three and five, and the experiment was finished on day eight. To determine DNA incorporation into proliferating cells, each animal was injected intravenously with BrdU (50 mg/kg bw) ninety minutes before the second survival biopsy was taken on day five (peak of MC proliferation). Renal biopsies were fixed in methyl Carnoy's, 10% formalin and/or OCT and snap frozen. A twenty-four hour urine collection for measurement of protein and creatinine was done from day seven to eight, when maximal proteinuria occurs in this model (unpublished observation). Blood pressure measurements were done twice before and twice after disease induction. In renal biopsies, the frequency of glomerular microaneurysms, the number of infiltrating macrophages, the number of proliferating MC, the expression of the contractile protein α-sm actin as a marker of MC-activation, and the expression of TGF-β1, TGF-β2, TGF-βRI, TGF-βRII, TSP1, as well as of extracellular matrix proteins such as collagen I, collagen IV and fibronectin were determined. For TGF-β activity measurements in individual animals on day eight, glomeruli were isolated by differential sieving (Johnson et al. (1991) Am. J. Pathol. 138 (2), 313-21) and counted using five aliquots. Glomerular isolates were discarded if purity was less than 95%. 8000 glomeruli/ml were incubated in DMEM at 37° C. […]

[1] = test system: rats with anti-Thy1 disease; assay: Glomerular extracellular matrix formation (Masson's Trichrome, collagen I, collagen IV, fibronectin stains) in the anti-Thy1 model; type: in vivo, rat
Description: as §1, §2
(§3) Renal biopsies as described previously (Hugo et al. (1997) J. Clin. Invest. 100, 786-794) were performed on days three and five, and the experiment was finished on day eight. To determine DNA incorporation into proliferating cells, each animal was injected intravenously with BrdU (50 mg/kg bw) ninety minutes before the second survival biopsy was taken on day five (peak of MC proliferation). Renal biopsies were fixed in methyl Carnoy's, 10% formalin and/or OCT and snap frozen. A twenty-four hour urine collection for measurement of protein and creatinine was done from day seven to eight, when maximal proteinuria occurs in this model (unpublished observation). Blood pressure measurements were done twice before and twice after disease induction. In renal biopsies, the frequency of glomerular microaneurysms, the number of infiltrating macrophages, the number of proliferating MC, the expression of the contractile protein α-sm actin as a marker of MC-activation, and the expression of TGF-β1, TGF-β2, TGF-βRI, TGF-βRII, TSP1, as well as of extracellular matrix proteins such as collagen I, collagen IV and fibronectin were determined. For TGF-β activity measurements in individual animals on day eight, glomeruli were isolated by differential sieving (Johnson et al. (1991) Am. J. Pathol. 138 (2), 313-21) and counted using five aliquots. Glomerular isolates were discarded if purity was less than 95%. 8000 glomeruli/ml were incubated in DMEM at 37° C. After a twenty-four hour incubation period, glomerular supernatants were stored by −70° C. until TGF-β activity measurements were done.
(§4) Peptide infusion. All peptides (at a concentration of 3.5 mg/ml) were continuously infused for seven days via a catheter in the right jugular vein using osmotic minipumps (Alzet Corp./Charles River, Sulzfeld, Germany). […]

[2] = test system: rats with anti-Thy1 disease; assay: Glomerular immunostaining score for TGF-β1, TGF-β2, TGF-βRI, TGF-βRII and TSP1 in the anti-Thy1 model; type: in vivo, rat
Description: as §1, §2, §3, §4

[3] = test system: rats with anti-Thy1 disease; assay: Glomerular MC-proliferation, MC-activation and macrophage influx in the anti-Thy1 model; type: in vivo, rat
Description: as §1, §2, §3, §4

[4] = test system: rats with anti-Thy1 disease; assay: Mesangiolysis, microaneurysm formation and GEN-proliferation in the anti-Thy1 model; type: in vivo, rat
Description: as §1, §2, §3, §4

[5] = test system: rats with anti-Thy1 disease; assay: Functional parameters (proteinuria, creatinine clearance, blood urea nitrogen, systolic blood pressure) in the anti-Thy1 model; type: in vivo, rat
Description: as §1, §2, §3, §4

[6] = test system: activation of TGF-β by TSP1; conditions: background, literature; cited from earlier work

In the case of “KRFK: TGF-β activating peptide, KRFK amino acid sequence of the TSP1 molecule (listed as Homo sapiens)”, the “histological changes in TSP1 null mice” value (TSP1 null mice) is listed as “reverted toward wild type”.

In the case of “Leu-Ser-Lys-Leu (LSKL; listed as Homo sapiens)”, the “Active TGF-β (colonies > 62 um)” value (TGF-β; day 8 glomeruli, 24 h supernatant, NRK-bioassay, continuous i.v. peptide infusion) is reported as 154 ± 50 colonies > 62 um, the “glomerular secretion of active TGF-β compared to control peptide (SLLK) treated rats” value (TGF-β; day eight glomeruli, p<0.01) is reported as “markedly reduced” and the “Matrix Collagen 1 (score 0-4)” value ([1]; day 3) is reported as 0.1 ± 0.1 score 0-4. The “Matrix Collagen IV (score 0-4)” value ([1]; day 3) was 1.0 ± 0.2 score 0-4, the “Matrix Fibronectin (score 0-4)” value ([1]; day 3) was 1.2 ± 0.4 score 0-4 and the “Matrix Trichrome (score 0-3)” value ([1]; day 3) was 0.4 ± 0.2 score 0-3. For the same substance, the “Matrix Collagen 1 (score 0-4)” value ([1]; day 5) was 0.7 ± 0.4 score 0-4, the “Matrix Collagen IV (score 0-4)” value ([1]; day 5) was 1.9 ± 0.3 score 0-4 and the “Matrix Fibronectin (score 0-4)” value ([1]; day 5) was 1.9 ± 0.6 score 0-4. For the same substance, the “Matrix Trichrome (score 0-3)” value ([1]; day 5) was 0.7 ± 0.2 score 0-3, the “Matrix Collagen 1 (score 0-4)” value ([1]; day 8) was 0.8 ± 0.5 score 0-4 and the “Matrix Collagen IV (score 0-4)” value ([1]; day 8) was 1.2 ± 0.4 score 0-4. For the same substance, the “Matrix Fibronectin (score 0-4)” value ([1]; day 8) was 0.9 ± 0.6 score 0-4, the “Matrix Trichrome (score 0-3)” value ([1]; day 8) was 1.2 ± 0.3 score 0-3 and the “extracellular matrix formation as determined by Trichrome staining” value ([1]; day eight, in words) was “markedly suppressed”. The “glomerular accumulation of collagen I, collagen IV and fibronectin by immunohistochemistry” value ([1]; time course of anti-Thy1 disease, in words) was “reduced glomerular accumulation of all three extracellular matrix proteins”, the “TGF-β1 (score 0-4)” value ([2]; day 3) was 0.1 ± 0.1 score 0-4 and the “TGF-β2 (score 0-4)” value ([2]; day 3) was 0.2 ± 0.1 score 0-4. The “TGF-βRI (score 0-4)” value ([2]; day 3) was 0.2 ± 0.2 score 0-4, the “TGF-βRII (score 0-4)” value ([2]; day 3) was 0.2 ± 0.1 score 0-4 and the “TSP I (score 0-4)” value ([2]; day 3) was 0.3 ± 0.2 score 0-4. The “TGF-β1 (score 0-4)” value ([2]; day 5) was 1.8 ± 0.6 score 0-4, the “TGF-β2 (score 0-4)” value ([2]; day 5) was 1.2 ± 0.6 score 0-4 and the “TGF-βRI (score 0-4)” value ([2]; day 5) was 1.4 ± 0.3 score 0-4. The “TGF-βRII (score 0-4)” value ([2]; day 5) was 1.3 ± 0.3 score 0-4, the “TSP I (score 0-4)” value ([2]; day 5) was 1.4 ± 0.6 score 0-4 and the “TGF-β1 (score 0-4)” value ([2]; day 8) was 1.7 ± 0.6 score 0-4. The “TGF-β2 (score 0-4)” value ([2]; day 8) was 0.6 ± 0.6 score 0-4, the “TGF-βRI (score 0-4)” value ([2]; day 8) was 1.4 ± 0.4 score 0-4 and the “TGF-βRII (score 0-4)” value ([2]; day 8) was 0.9 ± 0.6 score 0-4. For the same substance, the “TSP I (score 0-4)” value ([2]; day 8) was 0.5 ± 0.3 score 0-4, the “MC-activation α-sm actin (score 0-4)” value ([3]; day 3) was 0.6 ± 0.3 score 0-4 and the “MC-proliferation (OX-7 + /PCNA + cells/glomerulus)” value ([3]; day 3) was 3.3 ± 0.6 cells/glomerulus. For the same substance, the “Macrophages (ED-1 + cells/glomerulus)” value ([3]; day 3) was 4.3 ± 2.0 cells/glomerulus, the “MC-activation α-sm actin (score 0-4)” value ([3]; day 5) was 2.5 ± 0.4 score 0-4 and the “MC-proliferation (OX-7 + /BrdU + cells/glomerulus)” value ([3]; day 5) was 3.9 ± 0.6 cells/glomerulus. For the same substance, the “MC-proliferation (OX-7 + /PCNA + cells/glomerulus)” value ([3]; day 5) was 7.9 ± 1.0 cells/glomerulus, the “Macrophages (ED-1 + cells/glomerulus)” value ([3]; day 5) was 1.0 ± 0.6 cells/glomerulus and the “MC-activation α-sm actin (score 0-4)” value ([3]; day 8) was 2.4 ± 0.5 score 0-4. For the same substance, the “MC-proliferation (OX-7 + /PCNA + cells/glomerulus)” value ([3]; day 8) was 4.6 ± 0.5 cells/glomerulus, the “Macrophages (ED-1 + cells/glomerulus)” value ([3]; day 8) was 0.7 ± 0.5 cells/glomerulus and the “MC activation (de novo expression of α-sm-actin)” value ([3]; in words) was “did not significantly alter”. For the same substance, the “Glomerular Microaneurysm (in percent)” value ([4]; day 3) was 16.7 ± 10.0%, the “Glomerular Microaneurysm (in percent)” value ([4]; day 5) was 13.8 ± 19.9% and the “Glomerular Microaneurysm (in percent)” value ([4]; day 8) was 2.2 ± 2.7%. For the same substance, the “Glomerular GEN-proliferation (double staining for RECA-1 and PCNA)” value ([4]; day three) was 2.0±0.5, the mesangiolysis scores ([4]; day three, scale 0-IV) was 2.56±0.3 and the “Proteinuria (mg/24 hours)” value ([5]; day 8 (urine collection day seven to eight)) was 24 ± 20 mg/24 hours. For the same substance, the twenty-four hour proteinuria ([5]; days seven to eight) was 24±20 mg/twenty-four hours, the Blood urea nitrogen ([5]; rat, in vivo) was 33.2 ± 9.4 mg/dL and the “block of activation of TGF-β by TSP1” value [6] was “able to block activation of TGF-β by TSP1”.
